The values below come from ChEMBL document CHEMBL1129001, “From indomethacin to a selective COX-2 inhibitor: Development of indolalkanoic acids as potent and selective cyclooxygenase-2 inhibitors” (Bioorg Med Chem Lett, 1996).

Bounds are passed on as bounds.

The target of assay [1] is T1, Prostaglandin G/H synthase 1 (Rattus norvegicus, UniProt Q63921).
T1 sequence (Q63921 whole entry): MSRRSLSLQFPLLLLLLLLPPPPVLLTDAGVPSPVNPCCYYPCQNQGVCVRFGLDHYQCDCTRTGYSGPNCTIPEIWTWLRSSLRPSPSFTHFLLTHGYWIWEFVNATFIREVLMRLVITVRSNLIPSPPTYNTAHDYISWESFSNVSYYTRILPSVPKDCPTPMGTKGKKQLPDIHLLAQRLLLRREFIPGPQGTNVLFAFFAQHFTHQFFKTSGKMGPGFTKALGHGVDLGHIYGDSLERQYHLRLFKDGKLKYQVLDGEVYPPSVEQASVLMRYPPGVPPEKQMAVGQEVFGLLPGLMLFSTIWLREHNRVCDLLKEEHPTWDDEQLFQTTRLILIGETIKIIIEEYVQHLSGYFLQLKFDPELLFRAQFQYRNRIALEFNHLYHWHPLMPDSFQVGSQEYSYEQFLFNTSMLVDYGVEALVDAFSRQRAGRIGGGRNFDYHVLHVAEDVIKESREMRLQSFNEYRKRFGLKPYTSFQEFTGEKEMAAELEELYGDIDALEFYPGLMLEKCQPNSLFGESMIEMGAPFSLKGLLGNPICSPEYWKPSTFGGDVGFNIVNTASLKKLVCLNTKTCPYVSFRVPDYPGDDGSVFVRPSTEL
Description: Inhibition of Prostaglandin G/H synthase 1 using whole cell assay

In assay [2] the target is T2, Prostaglandin G/H synthase 2 (Rattus norvegicus, UniProt P35355).
T2 sequence (P35355 whole entry): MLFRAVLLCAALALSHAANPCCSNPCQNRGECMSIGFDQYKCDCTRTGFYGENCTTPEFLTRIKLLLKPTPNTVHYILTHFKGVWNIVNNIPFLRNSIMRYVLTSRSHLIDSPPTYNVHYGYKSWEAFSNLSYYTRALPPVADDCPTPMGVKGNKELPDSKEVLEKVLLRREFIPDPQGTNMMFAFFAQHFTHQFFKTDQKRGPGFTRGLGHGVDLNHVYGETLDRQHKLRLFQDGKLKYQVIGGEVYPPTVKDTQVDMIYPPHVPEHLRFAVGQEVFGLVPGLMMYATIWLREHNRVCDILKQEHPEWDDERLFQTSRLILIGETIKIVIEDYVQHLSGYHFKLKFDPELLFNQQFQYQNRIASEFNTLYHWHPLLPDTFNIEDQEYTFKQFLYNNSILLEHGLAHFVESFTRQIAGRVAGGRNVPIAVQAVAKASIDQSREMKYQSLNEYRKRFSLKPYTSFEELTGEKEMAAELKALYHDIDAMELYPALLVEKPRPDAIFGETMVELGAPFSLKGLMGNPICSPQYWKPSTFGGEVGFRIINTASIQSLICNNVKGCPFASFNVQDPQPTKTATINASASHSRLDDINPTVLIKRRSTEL
Description: Inhibition of Prostaglandin G/H synthase 2

For assay [3], the system named is Rattus norvegicus. In words: Compound was evaluated for inhibition of paw edema in rat. It is filed as functional.

Take `COc1ccc2c(c1)c(CC(=O)O)c(C)n2C(=O)c1c(Cl)cc(Cl)cc1Cl`: the IC50 was greater than 100000 nM in assay [1] and 500 nM in assay [2]. In assay [3], this compound showed an ED30 of 1.3 mg/kg.
With `COc1ccc2c(c1)c(CC(C)C(=O)O)c(C)n2Cc1ccc(Br)cc1` (centres undefined), the figures for the IC50 in assay [1] and in assay [2] were greater than 50000 nM and 3 nM, respectively. This compound gave an ED30 in assay [3] of 2.6 mg/kg.
In the case of `COc1ccc2c(c1)c(CCC(=O)O)c(C)n2Cc1ccc(Br)cc1`, the IC50 was greater than 50000 nM in assay [1] and 3 nM in assay [2]. Besides, in assay [3], the ED30 is greater than 3 mg/kg.
On to `COc1ccc2c(c1)c(C(C)C(=O)O)c(C)n2Cc1ccc(Cl)cc1` (centres undefined), for which the results for the IC50 in assay [1] and in assay [2] were 11000 nM and 20 nM, respectively. In assay [3], this compound had an ED30 of 3 mg/kg.
Regarding `COc1ccc2c(c1)c(C(C)CC(=O)O)c(C)n2Cc1ccc(Br)cc1` (centres undefined), the IC50 in assay [1] was greater than 50000 nM; in assay [2] it was 4 nM. Further, in assay [3], the ED30 was determined as 0.6 mg/kg.
For `COc1ccc2c(c1)c(CC1(CC(=O)O)CC1)c(C)n2Cc1ccc(Br)cc1`, in that order: greater than 10000 nM, 16 nM and 0.5 mg/kg.
On to `COc1ccc2c(c1)c([C@@H](C)[C@@H](C)C(=O)O)c(C)n2Cc1ccc(Br)cc1`, for which the IC50 in assay [1] is greater than 50000 nM; in assay [2], 60 nM. In assay [3], the ED30 amounted to 0.6 mg/kg.
For the compound `COc1ccc2c(c1)c(CC(=O)O)c(C)n2Cc1ccc(Br)cc1`, the IC50 turned out to be 41000 nM in assay [1] and 9 nM in assay [2]. The ED30 in assay [3] was determined as 0.6 mg/kg.
For `COc1ccc2c(c1)c(CCC(C)C(=O)O)c(C)n2Cc1ccc(Br)cc1` (centres undefined), the IC50 in assay [1] is greater than 10000 nM; in assay [2] it was 4 nM. In assay [3], this compound had an ED30 of 1.6 mg/kg.
Consider `COc1ccc2c(c1)c(CCCC(=O)O)c(C)n2Cc1ccc(Br)cc1`, for which the IC50 in assay [1] was greater than 50000 nM; in assay [2] it was 6 nM. The compound also yielded an ED30 in assay [3] of 1.2 mg/kg.
For the compound `COc1ccc2c(c1)c(CC(C)CC(=O)O)c(C)n2Cc1ccc(Br)cc1` (centres undefined), the IC50 in assay [1] is greater than 10000 nM; in assay [2], 2 nM. The same compound returned an ED30 in assay [3] of 0.4 mg/kg.
`COc1ccc2c(c1)c(CC(=O)O)c(C)n2C(=O)c1ccc(Cl)cc1` [INDOMETHACIN] displayed an ED30 in assay [3] of 0.9 mg/kg.
